{"source": "patent US11458077B2", "about": "“Two-phase cosmetic composition comprising a 4-(3-alkoxy-4-hydroxyphenyl)alkyl ketone” (L'OREAL, priority 2017, dated 2022)", "assay": "Solubility of the ketone compound", "type": "physicochemical", "data": [{"smiles": "CCOc1cc(CCC(C)=O)ccc1O", "note": "[ketone compound, 4-(3-Ethoxy-4-hydroxyphenyl)butan-2-one]", "values": [{"measurement": "solubility in glycerol", "setting": "glycerol", "value": "very low solubility"}, {"measurement": "solubility in water", "setting": "water", "value": "very low solubility"}]}]}
